#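 1) Cells in 96-well plates. 2) Compound, 48 h, 5 concentrations. 3) Linear interpolation between surrounding doses. 4) Unreached endpoint = highest concentration. The concentration for 50% growth inhibition is given as GI50. TGI denotes the concentration required for complete inhibition of growth.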
# How the values were obtained:
# Assay in all cases: NCI tumour cell line growth inhibition, 48 h
# NCI-H226 lung = test system: NCI-H226 lung
# SW-620 colon = test system: SW-620 colon
# HS 578T breast = test system: HS 578T breast
# HOP-62 NSCLC = test system: HOP-62 NSCLC
# UO-31 renal = test system: UO-31 renal
# OVCAR-8 ovarian = test system: OVCAR-8 ovarian
# DU-145 prostate = test system: DU-145 prostate
# SF-268 CNS = test system: SF-268 CNS
# HL-60(TB) leukemia = test system: HL-60(TB) leukemia
# OVCAR-3 ovarian = test system: OVCAR-3 ovarian
# RXF 393 renal = test system: RXF 393 renal
# SK-OV-3 ovarian = test system: SK-OV-3 ovarian
# MCF7 breast = test system: MCF7 breast
# IGROV1 ovarian = test system: IGROV1 ovarian
# SF-295 CNS = test system: SF-295 CNS
# RPMI-8226 leukemia = test system: RPMI-8226 leukemia
# COLO 205 colon = test system: COLO 205 colon
# K-562 leukemia = test system: K-562 leukemia
# SN12C renal = test system: SN12C renal
# HOP-92 NSCLC = test system: HOP-92 NSCLC
# BT-549 breast = test system: BT-549 breast
# SK-MEL-5 melanoma = test system: SK-MEL-5 melanoma
# A549 NSCLC = test system: A549 NSCLC
# HCT-116 colon = test system: HCT-116 colon
# HCC-2998 colon = test system: HCC-2998 colon
# TK-10 renal = test system: TK-10 renal
# HT29 colon = test system: HT29 colon
# MALME-3M melanoma = test system: MALME-3M melanoma
# SK-MEL-28 melanoma = test system: SK-MEL-28 melanoma
# KM12 colon = test system: KM12 colon
# T-47D breast = test system: T-47D breast
# OVCAR-4 ovarian = test system: OVCAR-4 ovarian
# EKVX NSCLC = test system: EKVX NSCLC
# A498 renal = test system: A498 renal
# MDA-MB-435 = test system: MDA-MB-435
# UACC-257 melanoma = test system: UACC-257 melanoma
# SNB-19 CNS = test system: SNB-19 CNS
# 786-0 renal = test system: 786-0 renal
# PC-3 prostate = test system: PC-3 prostate
# HCT-15 colon = test system: HCT-15 colon
# SF-539 CNS = test system: SF-539 CNS
# MDA-MB-231 breast = test system: MDA-MB-231 breast
# OVCAR-5 ovarian = test system: OVCAR-5 ovarian
# MOLT-4 leukemia = test system: MOLT-4 leukemia
# ACHN renal = test system: ACHN renal
# NCI/ADR-RES ovarian = test system: NCI/ADR-RES ovarian
# CAKI-1 renal = test system: CAKI-1 renal
# SR leukemia = test system: SR leukemia
# SNB-75 CNS = test system: SNB-75 CNS
# U251 CNS = test system: U251 CNS
# SK-MEL-2 melanoma = test system: SK-MEL-2 melanoma
# UACC-62 melanoma = test system: UACC-62 melanoma
# CCRF-CEM leukemia = test system: CCRF-CEM leukemia
# NCI-H460 lung = test system: NCI-H460 lung
# M14 melanoma = test system: M14 melanoma
# NCI-H23 lung = test system: NCI-H23 lung
smiles,measurement,setting,value
CC(=O)O[C@H]1CC2C(C3CCC(C(C)CCC(N)=O)[C@]31C)[C@H](OC(C)=O)C[C@@H]1CC3(CC[C@]21C)OOC1(CC[C@]2(C)C4C[C@H](OC(C)=O)[C@]5(C)C(C(C)CCC(N)=O)CCC5C4[C@H](OC(C)=O)C[C@@H]2C1)OO3 (some centres undefined),TGI,NCI-H226 lung,2790 nM
same,TGI,SW-620 colon,> 100000 nM
same,TGI,HS 578T breast,4550 nM
same,TGI,HOP-62 NSCLC,3860 nM
same,TGI,UO-31 renal,2360 nM
same,TGI,OVCAR-8 ovarian,3660 nM
same,TGI,DU-145 prostate,3490 nM
same,TGI,SF-268 CNS,3370 nM
same,TGI,HL-60(TB) leukemia,4190 nM
same,TGI,OVCAR-3 ovarian,2850 nM
same,TGI,RXF 393 renal,3340 nM
same,TGI,SK-OV-3 ovarian,3950 nM
same,TGI,MCF7 breast,4080 nM
same,TGI,IGROV1 ovarian,3280 nM
same,TGI,SF-295 CNS,3200 nM
same,TGI,RPMI-8226 leukemia,> 100000 nM
same,TGI,COLO 205 colon,2840 nM
same,TGI,K-562 leukemia,> 100000 nM
Cc1ccc(-c2nc(/C=N/Nc3cc(C)nc4ccc(Cl)cc34)c(C)o2)cc1,GI50,NCI-H226 lung,1840 nM
same,TGI,NCI-H226 lung,3720 nM
same,GI50,SN12C renal,1790 nM
same,TGI,SN12C renal,3490 nM
same,GI50,HOP-92 NSCLC,1430 nM
same,TGI,HOP-92 NSCLC,2980 nM
same,GI50,SW-620 colon,485 nM
same,TGI,SW-620 colon,2070 nM
same,GI50,BT-549 breast,1720 nM
same,TGI,BT-549 breast,3270 nM
same,GI50,SK-MEL-5 melanoma,1760 nM
same,TGI,SK-MEL-5 melanoma,3150 nM
same,GI50,A549 NSCLC,1830 nM
same,TGI,A549 NSCLC,3770 nM
same,GI50,HOP-62 NSCLC,1880 nM
same,TGI,HOP-62 NSCLC,3580 nM
same,GI50,UO-31 renal,1620 nM
same,TGI,UO-31 renal,2980 nM
same,GI50,OVCAR-8 ovarian,1650 nM
same,TGI,OVCAR-8 ovarian,4130 nM
same,GI50,HCT-116 colon,1790 nM
same,TGI,HCT-116 colon,3230 nM
same,GI50,DU-145 prostate,2490 nM
same,TGI,DU-145 prostate,6670 nM
same,GI50,HCC-2998 colon,2070 nM
same,TGI,HCC-2998 colon,3770 nM
same,GI50,TK-10 renal,1800 nM
same,TGI,TK-10 renal,3320 nM
same,GI50,HT29 colon,664 nM
same,TGI,HT29 colon,2500 nM
same,GI50,MALME-3M melanoma,1940 nM
same,TGI,MALME-3M melanoma,3670 nM
same,GI50,SK-MEL-28 melanoma,1810 nM
same,TGI,SK-MEL-28 melanoma,3290 nM
same,GI50,HL-60(TB) leukemia,1120 nM
same,TGI,HL-60(TB) leukemia,2970 nM
same,GI50,KM12 colon,1880 nM
same,TGI,KM12 colon,3880 nM
same,GI50,T-47D breast,1800 nM
same,TGI,T-47D breast,3720 nM
same,GI50,OVCAR-4 ovarian,1800 nM
same,TGI,OVCAR-4 ovarian,3420 nM
same,GI50,EKVX NSCLC,1700 nM
same,TGI,EKVX NSCLC,3210 nM
same,GI50,A498 renal,1610 nM
same,TGI,A498 renal,3770 nM
same,GI50,MDA-MB-435,1690 nM
same,TGI,MDA-MB-435,3250 nM
same,GI50,UACC-257 melanoma,1710 nM
same,TGI,UACC-257 melanoma,3310 nM
same,GI50,OVCAR-3 ovarian,1940 nM
same,TGI,OVCAR-3 ovarian,3560 nM
same,GI50,SNB-19 CNS,1840 nM
same,TGI,SNB-19 CNS,3490 nM
same,GI50,786-0 renal,1420 nM
same,TGI,786-0 renal,2760 nM
same,GI50,PC-3 prostate,2260 nM
same,TGI,PC-3 prostate,5650 nM
same,GI50,HCT-15 colon,549 nM
same,TGI,HCT-15 colon,2080 nM
same,GI50,SF-539 CNS,1780 nM
same,TGI,SF-539 CNS,3290 nM
same,GI50,RXF 393 renal,1450 nM
same,TGI,RXF 393 renal,2940 nM
same,GI50,MDA-MB-231 breast,1810 nM
same,TGI,MDA-MB-231 breast,3480 nM
same,GI50,SK-OV-3 ovarian,1780 nM
same,TGI,SK-OV-3 ovarian,3210 nM
same,GI50,OVCAR-5 ovarian,1720 nM
same,TGI,OVCAR-5 ovarian,3390 nM
same,GI50,MOLT-4 leukemia,2020 nM
same,TGI,MOLT-4 leukemia,4880 nM
same,GI50,ACHN renal,1680 nM
same,TGI,ACHN renal,3050 nM
same,GI50,MCF7 breast,1630 nM
same,TGI,MCF7 breast,3200 nM
same,GI50,IGROV1 ovarian,1810 nM
same,TGI,IGROV1 ovarian,3480 nM
same,GI50,NCI/ADR-RES ovarian,2100 nM
same,TGI,NCI/ADR-RES ovarian,4670 nM
same,GI50,CAKI-1 renal,1740 nM
same,TGI,CAKI-1 renal,3190 nM
same,GI50,SR leukemia,339 nM
same,TGI,SR leukemia,1390 nM
same,GI50,SNB-75 CNS,1550 nM
same,TGI,SNB-75 CNS,3200 nM
same,GI50,U251 CNS,1830 nM
same,TGI,U251 CNS,3390 nM
same,GI50,SF-295 CNS,1800 nM
same,TGI,SF-295 CNS,3310 nM
same,GI50,SK-MEL-2 melanoma,2010 nM
same,TGI,SK-MEL-2 melanoma,4110 nM
same,GI50,UACC-62 melanoma,1770 nM
same,TGI,UACC-62 melanoma,3430 nM
same,GI50,CCRF-CEM leukemia,1610 nM
same,TGI,CCRF-CEM leukemia,4810 nM
same,GI50,RPMI-8226 leukemia,1690 nM
same,TGI,RPMI-8226 leukemia,4200 nM
same,GI50,NCI-H460 lung,1930 nM
same,TGI,NCI-H460 lung,3790 nM
same,GI50,M14 melanoma,1800 nM
same,TGI,M14 melanoma,3490 nM
same,GI50,COLO 205 colon,1760 nM
same,TGI,COLO 205 colon,3570 nM
same,GI50,NCI-H23 lung,2170 nM
same,TGI,NCI-H23 lung,4480 nM
